Source: patent US20020019533A1, “PIPERIDINE DERIVATIVES AND ANTI-PLATELET AGENTS CONTAINING THE SAME” (priority 1994, published 2002)

What was measured:
serotonin 2 receptor = target: T1, serotonin 2 receptor (Bos taurus, UniProt Q75Z89); test: Binding affinity to the serotonin 2 receptor, [3H]-ketanserin, bovine cerebral cortex membrane; conditions: negative logarithm of Ki, 3 nM [3H]-ketanserin, 25° C., 30 minutes
T1 construct: evaluated using a bovine cerebral cortex membrane sample; from tissue; host or cells: bovine cerebral cortex membranes
T1 sequence (Q75Z89 whole entry): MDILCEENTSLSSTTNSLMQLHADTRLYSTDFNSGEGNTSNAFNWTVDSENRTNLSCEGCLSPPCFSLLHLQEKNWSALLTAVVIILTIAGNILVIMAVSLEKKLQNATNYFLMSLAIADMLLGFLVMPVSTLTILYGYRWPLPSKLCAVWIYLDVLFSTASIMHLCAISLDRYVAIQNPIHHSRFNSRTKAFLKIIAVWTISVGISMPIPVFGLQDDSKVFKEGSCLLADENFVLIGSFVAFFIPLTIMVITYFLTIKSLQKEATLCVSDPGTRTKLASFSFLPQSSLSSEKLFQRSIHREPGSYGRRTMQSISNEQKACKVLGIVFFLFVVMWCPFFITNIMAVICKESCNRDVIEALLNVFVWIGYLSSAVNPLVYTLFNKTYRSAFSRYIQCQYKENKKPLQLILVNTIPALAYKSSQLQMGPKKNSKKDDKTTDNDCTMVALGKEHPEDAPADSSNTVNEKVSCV
Experimental: The binding affinity to the serotonin 2 receptor was evaluated using a bovine cerebral cortex membrane sample. To 200 μl of a bovine membrane sample adjusted to 50 mg (wet weight) membrane/ml were added 200 μl of 3 nM [^3H]-ketanserin and 200 μl of a test compound solution prepared by dissolving a test compound in 1.7% ethanol, followed by mixing. The mixture was incubated at 25° C. for 30 minutes and filtered with a glass filter. The radioactivity trapped on the filter was measured with a liquid scintillation counter. The non-specific binding was defined by 10^−6 M LY53857. The concentration of the test compound which inhibits 50% of the specific binding of [^3H]-ketanserin (i.e., IC50 value) was obtained, and the Ki value was calculated in accordance with the following equation. The results are shown as the negative logarithm of the Ki value (i.e., pKi value). [formula]
In the equation, Ki indicates the dissociation constant and [L] indicates the concentration of [^3H]-ketanserin.

platelet of SD rats = test: In vitro anti-platelet effect: platelet aggregation induced by ADP + serotonin in rat platelet rich plasma; format: cell-based; conditions: rat PRP, 0.5 μM or 0.8 μM ADP + serotonin, 50% inhibition of the serotonin-caused increase in aggregation
Experimental: The anti-platelet effect due to the serotonin antagonistic activity was measured in vitro using the platelet of SD rats (body weight: about 300 to 400 g, male). Platelet rich plasma (PRP) and platelet poor plasma (PPP) were prepared from blood with 0.38% sodium citrate which was obtained from aorta abdominalis of a rat under diethyl ether anesthesia. The platelet concentration of PRP was adjusted to 5×10^8 platelets/ml by adding PPP. Then, the test compound dissolved in 0.4% aqueous ethanol was added, and the mixture was incubated at 37° C. for 3 minutes. The platelet aggregation induced by addition of 0.5 μM or 0.8 μM adenosine diphosphate (ADP)+ serotonin was measured as an increase in optical transmittance of PRP. The concentration of the test compound which inhibits 50% of the increase in platelet aggregation which is obtained with serotonin without a test compound was measured, and its negative logarithm (pIC50) was calculated.

[1] = system: platelet aggregation by serotonin; test: In vivo anti-platelet effect after oral administration: ADP + serotonin induced aggregation of PRP taken 2 hours after dosing; set-up: species or system SD rats; conditions: 2 hours after administration, arabic gum group = 100%, n=3
Experimental: The anti-platelet effect due to the serotonin antagonistic activity was measured in vivo using SD rats (body weight: about 210 to 330 g, male). Two hours after the administration of the test compound, the rat was anesthetized with diethyl ether and platelet rich plasma (PRP) and platelet poor plasma (PPP) were prepared from blood with 0.38% sodium citrate which was obtained from aorta abdominalis of the rat. The platelet concentration of PRP was adjusted to 5×10^8 platelets/ml by adding PPP. Then, the PRP was incubated at 37° C. for 3 minutes, and platelet aggregation induced by addition of 0.7 μM adenosine diphosphate (ADP)+ serotonin was measured as an increase in optical transmittance of PRP. The aggregation occurred by addition of ADP alone and the maximum aggregation ratio by the simultaneous addition of ADP and serotonin were measured with respect to each group, and increase in aggregation caused by serotonin was calculated. The increase in aggregation caused by serotonin in the arabic gum administered group was taken as 100%, and the effect of the test compound was judged using as an index the increase in aggregation caused by the serotonin in the test compound-administered group (n=3).

[2] = system: head twitch of mouse induced by 5-hydroxytryptophan (5HTP); test: Inhibiting effect on head twitch of mouse induced by 5-hydroxytryptophan (5HTP); format: in vivo, ICR mouse; conditions: oral, 90 minutes before 5HTP (180 mg/kg i.p.); 50% inhibition of the number of head twitches
Experimental: The serotonin antagonistic activity in the central nerve system was evaluated by measuring the inhibiting effect on head twitch of mouse induced by 5-hydroxytryptophan (5HTP) A test compound in an amount of 1, 3, 10, or 30 mg was respectively dissolved in 100 ml of water and, 90 minutes before 5HTP administration, the solution (10 ml/kg body weight) was orally administered to a ICR mouse (body weight: 27 to 32 g, male) fasted from the previous day. As a control, 5% arabic gum was used. Carbidopa (6 mg/kg) was subcutaneously administered and, after 15 minutes, 5HTP (180 mg/kg) was intraperitoneally administered. From the 15 minutes after 5HTP administration, the number of head twitches occurred within 2 minutes were counted. The concentration of the test compound which inhibits 50% of the number of head twitches in the 5% arabic gum administered group was obtained.

SMILES | pKi (serotonin 2 receptor) | pIC50 (platelet of SD rats) | further results
O=CN1CCC(C(=O)NCCN2CCC(=C3c4ccccc4C=Cc4ccccc43)CC2)CC1 [Compound 3] |  |  | Ki (serotonin 2 receptor): 3.98 nM; IC50 (platelet of SD rats; Platelet): 63.1 nM; Increase in aggregation by serotonin ([1]; 0.1 mg/kg oral): 75.7%; Increase in aggregation by serotonin ([1]; 0.3 mg/kg oral): 57.3%; Increase in aggregation by serotonin ([1]; 1 mg/kg oral): 24.3%; Increase in aggregation by serotonin ([1]; 3 mg/kg oral): 27%; Increase in aggregation by serotonin ([1]; 10 mg/kg oral): −2.7%; ID50 [2]: 0.39 mg/kg
CCOC(=O)NCCN1CCC(=C2c3ccccc3C=Cc3ccccc32)CC1 [Compound 16] |  | 7.6 | 
C1=Cc2ccccc2C(=C2CCN(CCCCN3CCSCC3)CC2)c2ccccc21 [Compound 42] | 8.7 | 6.6 | 
NC1(C(=O)NCCN2CCC(=C3c4ccccc4C=Cc4ccccc43)CC2)CCCCC1 [Compound 18] | 8.9 | 7.3 | Increase in aggregation by serotonin ([1]; 0.3 mg/kg oral): 94.9%
CC(=O)NCC(=O)N1CCC(C(=O)NCCN2CCC(=C3c4ccccc4C=Cc4ccccc43)CC2)CC1 [Compound 8] | 7.9 | 6.6 | 
CC(C)(C)OC(=O)NC1(C(=O)NCCN2CCC(=C3c4ccccc4C=Cc4ccccc43)CC2)CCCCC1 [Compound 20] | 8.0 | 6.3 | 
C1=Cc2ccccc2C(=C2CCN(CCCCN3CCOCC3)CC2)c2ccccc21 [Compound 41] | 8.2 | 6.9 | Increase in aggregation by serotonin ([1]; 0.3 mg/kg oral): 91.5%
CN1CCC(=C2c3ccccc3C=Cc3ccccc32)CC1 [cycloheptadine, reference compound] |  |  | ID50 [2]: 0.12 mg/kg
O=C(NCCN1CCC(=C2c3ccccc3C=Cc3ccccc32)CC1)C1CCCCN1 (centres unmarked) [Compound 9] | 7.8 | 7.1 | Increase in aggregation by serotonin ([1]; 0.3 mg/kg oral): 57.3%
O=CNC1(C(=O)NCCN2CCC(=C3c4ccccc4C=Cc4ccccc43)CC2)CCCCC1 [Compound 21] | 7.8 | 6.5 | 
O=CN1CCC(C(=O)NCCN2CCC(=C3c4ccccc4C=Cc4ccccc43)CC2)CC1 [Compound 6] |  | 6.9 | 
O=CN1CCN(C(=O)NCCN2CCC(=C3c4ccccc4C=Cc4ccccc43)CC2)CC1 [Compound 11] | 8.8 | 7.0 | 
CC(C)(C)OC(=O)NCCN1CCC(=C2c3ccccc3C=Cc3ccccc32)CC1 [Compound 17] |  | 7.0 | Increase in aggregation by serotonin ([1]; 0.3 mg/kg oral): 50.7%
CC(=O)NC1(C(=O)NCCN2CCC(=C3c4ccccc4C=Cc4ccccc43)CC2)CCCCC1 [Compound 19] | 8.3 | 6.4 | 
CC(C)(C)OC(=O)N1CCC(C(=O)NCCN2CCC(=C3c4ccccc4C=Cc4ccccc43)CC2)CC1 [Compound 5] | 8.0 | 6.5 | 
O=C(NCCN1CCC(=C2c3ccccc3C=Cc3ccccc32)CC1)C1CCNCC1 [Compound 2] | 8.6 | 7.3 | 
NC1CCC(C(=O)NCCN2CCC(=C3c4ccccc4C=Cc4ccccc43)CC2)CC1 (centres unmarked) [Compound 12] | 8.6 | 6.6 | 

Further lines, with some results ahead:

pKi (serotonin 2 receptor) | pIC50 (platelet of SD rats) | SMILES | further results
8.2 | 5.8 | CN(C)C(=O)NC1(C(=O)NCCN2CCC(=C3c4ccccc4C=Cc4ccccc43)CC2)CCCCC1 [Compound 22] | 
 | 7.1 | CN(CCCC(=O)NCCN1CCC(=C2c3ccccc3C=Cc3ccccc32)CC1)C(=O)OC(C)(C)C [Compound 29] | 
 | 7.6 | NCCCC(=O)NCCN1CCC(=C2c3ccccc3C=Cc3ccccc32)CC1 [Compound 23] | 
9.8 | 7.2 | O=CNCCCC(=O)NCCN1CCC(=C2c3ccccc3C=Cc3ccccc32)CC1 [Compound 24] | 
 | 7.2 | CC(C)(C)OC(=O)NCCCC(=O)NCCN1CCC(=C2c3ccccc3C=Cc3ccccc32)CC1 [Compound 26] | 
9.2 | 6.6 | CC(=O)NCCCC(=O)NCCN1CCC(=C2c3ccccc3C=Cc3ccccc32)CC1 [Compound 25] | 
 | 6.6 | CNCCCC(=O)NCCN1CCC(=C2c3ccccc3C=Cc3ccccc32)CC1 [Compound 28] | 
8.8 |  | CC(C)(C)OC(=O)NCCCN1CCC(=C2c3ccccc3C=Cc3ccccc32)CC1 [Compound 31] | 
9.2 | 6.9 | CN(C)C(=O)NCCCC(=O)NCCN1CCC(=C2c3ccccc3C=Cc3ccccc32)CC1 [Compound 27] | 
